Some test systems named below: MALME-3M melanoma; MDA-N; HOP-62 NSCLC; NCI-H23 lung; RXF 393 renal; SK-MEL-28 melanoma; XF 498 CNS; SNB-19 CNS; SK-OV-3 ovarian; DMS 273 small cell lung; COLO 205 colon; DMS 114 small cell lung.
Holding throughout (test): DTP human tumour cell line panel, 48 h

SMILES strings stand for the structures.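 1) Cells in 96-well plates. 2) Compound, 48 h, 5 concentrations. 3) Linear interpolation between surrounding doses. 4) Unreached endpoint = highest concentration. TGI denotes the concentration required for complete inhibition of growth.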

As for `Cc1ccc(C(=O)Nc2ccc(S(=O)(=O)O)c3cc(S(=O)(=O)O)cc(S(=O)(=O)O)c23)cc1NC(=O)c1cccc(NC(=O)Nc2cccc(C(=O)Nc3cc(C(=O)Nc4ccc(S(=O)(=O)O)c5cc(S(=O)(=O)O)cc(S(=O)(=O)O)c45)ccc3C)c2)c1`, the total growth inhibition concentration (TGI) in the assay with MALME-3M melanoma, in the assay with MDA-N, with HOP-62 NSCLC, in the assay with NCI-H23 lung, in the assay with RXF 393 renal and in the assay with SK-MEL-28 melanoma was more than 100 µM throughout. In addition, the concentration for total growth inhibition (TGI) was 90.5 µM with XF 498 CNS; more than 100 µM in the assay with SNB-19 CNS; more than 100 µM in the assay with SK-OV-3 ovarian; more than 100 µM with DMS 273 small cell lung; more than 100 µM with COLO 205 colon; more than 100 µM in the assay on DMS 114 small cell lung.

The values are drawn from PubChem BioAssay (NCI).
